According to paper PMC2981508 (Science (New York, N.Y.), 2009):
Where a chain is given by its changes, count along the chain named.

Experiments:
estrogen receptor = experiment: in vitro fluorescence polarization binding assay
[1] = system: AR target genes PSA and TMPRSS2 in LNCaP/AR cells; experiment: qRT-PCR of AR-dependent genes in LNCaP/AR cells; format: cell-based, human; settings: androgen-depleted media 5% CSS, 8 hours, 1 and 10 μM
[2] = molecular target: T1, mutant AR protein (W741C) (Homo sapiens, UniProt P10275, W742C); format: cell-based
T1 sequence (P10275 1-920 W742C): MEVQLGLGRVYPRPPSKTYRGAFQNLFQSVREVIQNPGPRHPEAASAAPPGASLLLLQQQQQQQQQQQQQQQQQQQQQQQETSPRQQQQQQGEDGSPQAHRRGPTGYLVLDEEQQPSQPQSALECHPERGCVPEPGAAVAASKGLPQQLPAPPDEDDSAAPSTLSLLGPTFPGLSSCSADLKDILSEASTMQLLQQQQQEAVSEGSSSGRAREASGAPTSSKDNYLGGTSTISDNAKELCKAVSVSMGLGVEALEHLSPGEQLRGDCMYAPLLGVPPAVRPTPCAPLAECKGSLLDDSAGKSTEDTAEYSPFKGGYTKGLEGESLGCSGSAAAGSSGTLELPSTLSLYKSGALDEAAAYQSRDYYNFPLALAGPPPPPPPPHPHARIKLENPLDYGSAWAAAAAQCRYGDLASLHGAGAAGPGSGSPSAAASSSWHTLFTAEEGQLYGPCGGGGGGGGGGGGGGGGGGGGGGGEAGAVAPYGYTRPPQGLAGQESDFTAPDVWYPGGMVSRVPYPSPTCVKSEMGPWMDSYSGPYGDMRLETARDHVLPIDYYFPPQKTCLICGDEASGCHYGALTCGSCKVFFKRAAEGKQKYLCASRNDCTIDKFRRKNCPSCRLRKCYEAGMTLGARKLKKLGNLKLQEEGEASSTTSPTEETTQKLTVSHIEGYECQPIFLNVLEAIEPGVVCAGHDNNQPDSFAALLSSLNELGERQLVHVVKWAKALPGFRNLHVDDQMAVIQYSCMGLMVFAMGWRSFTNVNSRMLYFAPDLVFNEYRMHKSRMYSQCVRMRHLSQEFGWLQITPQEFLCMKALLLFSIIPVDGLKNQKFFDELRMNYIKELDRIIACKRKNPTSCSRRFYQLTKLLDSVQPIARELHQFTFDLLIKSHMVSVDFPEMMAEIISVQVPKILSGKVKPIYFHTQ

LNCaP/AR xenografts = experiment: Ki-67 staining of LNCaP/AR xenografts; format: in vivo, mice; settings: after 5 days of treatment
AR [3] = format: cell-based; settings: in vitro
AR [4] = molecular target: T2, AR (Homo sapiens, UniProt P10275); experiment: in vitro studies of AR activity; format: cell-based
T2 sequence (P10275 1-920): T1 sequence (P10275 1-920 W742C) with C742W

[5] = Plasma levels in LNCaP/AR tumor-bearing mice; settings: 10 mg/kg oral daily, 20 hours after the final dose on day 28

## CNC(=O)c1ccc(N2C(=S)N(c3ccc(C#N)c(C(F)(F)F)c3)C(=O)C23CCC3)cc1F [RD162]
Estrogen receptor
  binding to estrogen receptor: little to no binding
[1]
  Expression of AR target genes PSA and TMPRSS2 (agonist activity): do not have agonist activity
[2]
  Transcriptional activity of mutant AR (W741C): inhibited the transcriptional activity
LNCaP/AR xenografts
  cellular proliferation by Ki-67 staining: substantially reduced
AR [3]
  effects on AR protein expression: no obvious changes
AR [4]
  concentrations expected to block AR activity based on the in vitro studies: 1 to 10 µM
[5]
  Plasma levels (mean): 24 µM
